MIC data for six compounds are collected here from ChEMBL document CHEMBL4118096, “Branched Peptides: Acridine and Boronic Acid Derivatives as Antimicrobial Agents” (ACS Med Chem Lett, 2017).

Common to all, as to assay type: functional
One experiment deals with Staphylococcus aureus. The experiment is described as follows: Antimicrobial activity against Staphylococcus aureus ATCC 6538 measured on day 4 by broth microdilution method. Conditions: ATCC 6538, 96 h.
A further experiment concerns Escherichia coli. The experiment is described as follows: Antimicrobial activity against Escherichia coli C ATCC 13706 measured on day 4 by broth microdilution method. The following applies: C ATCC 13706, 96 h. In general terms: In broth dilution the organism is exposed to a series of concentrations in liquid medium.
For experiment [1], the system named is Mycolicibacterium smegmatis. The experiment is described as follows: Antimicrobial activity against Mycobacterium smegmatis ATCC 607 measured on day 4 by broth microdilution method. Conditions: ATCC 607, 96 h.
For a further experiment, the system named is Candida albicans. In words: Antifungal activity against Candida albicans measured on day 4 by broth microdilution method. Conditions: 96 h.
A further experiment relates to Aspergillus niger. The experiment is described as follows: Antifungal activity against Aspergillus niger measured on day 4 by broth microdilution method. Conditions: 96 h.

The MIC is the smallest concentration in the dilution series that meets the test's criterion for growth inhibition. A lower MIC goes with greater potency.

Structures are written as SMILES. Values after ≈ are worked out from the molar mass of the structure shown. Where a SMILES comes first, the peptide text is derived from it. The star is where a group is joined. Benzoyl(4-B(OH)2) = O=C(c1ccc(B(O)O)cc1)*; Bz = O=C(c1ccccc1)*

As to `CC(C)C[C@H](NC(=O)[C@H](CCCCN)NC(=O)[C@H](CCCCN)NC(=O)[C@H](CCCCN)NC(=O)[C@H](CCCCNC(=O)c1ccccc1)NC(=O)[C@H](CCCCN)NC(=O)[C@H](CCCCN)NC(=O)[C@@H](N)CCCCNC(=O)c1ccccc1)C(=O)N[C@@H](CCCCNC(=O)c1ccc(B(O)O)cc1)C(=O)N[C@@H](Cc1ccc(O)cc1)C(=O)O` (H-K(Bz)KKK(Bz)KKKLK(Benzoyl(4-B(OH)2))Y-OH), the MIC in the experiment on Staphylococcus aureus stood at 62.5 µg/mL (≈ 37.3 µM); in the experiment on Escherichia coli it was 8 µg/mL (≈ 4.77 µM); in experiment [1], 62.5 µg/mL (≈ 37.3 µM); in the experiment with Candida albicans, 8 µg/mL (≈ 4.77 µM); in the experiment on Aspergillus niger, 125 µg/mL (≈ 74.6 µM).
In the case of `CC(C)C[C@H](NC(=O)[C@H](CC(C)C)NC(=O)[C@H](CCCCN)NC(=O)[C@H](CCCCNC(=O)c1ccc(B(O)O)cc1)NC(=O)[C@H](CCCCN)NC(=O)[C@H](CCCCN)NC(=O)[C@H](CCCCNC(=O)c1ccc(B(O)O)cc1)NC(=O)[C@@H](N)CCCCN)C(=O)N[C@@H](CCCCN)C(=O)N[C@@H](Cc1ccc(O)cc1)C(=O)O` (H-KK(Benzoyl(4-B(OH)2))KKK(Benzoyl(4-B(OH)2))KLLKY-OH), the MIC in the experiment on Staphylococcus aureus was 62.5 µg/mL (≈ 39 µM); against Escherichia coli, 16 µg/mL (≈ 10 µM); in experiment [1], 62.5 µg/mL (≈ 39 µM); against Candida albicans, 16 µg/mL (≈ 10 µM); with Aspergillus niger, 125 µg/mL (≈ 78.1 µM).
As to `CC(C)C[C@H](NC(=O)[C@H](CCCCN)NC(=O)[C@H](CCCCNC(=O)c1ccc(B(O)O)cc1)NC(=O)[C@H](CCCCN)NC(=O)[C@H](CCCCN)NC(=O)[C@H](CCCCNC(=O)c1ccc(B(O)O)cc1)NC(=O)[C@H](CCCCN)NC(=O)[C@@H](N)CCCCN)C(=O)N[C@@H](CCCCNC(=O)c1ccc(B(O)O)cc1)C(=O)N[C@@H](Cc1ccc(O)cc1)C(=O)O` (H-KKK(Benzoyl(4-B(OH)2))KKK(Benzoyl(4-B(OH)2))KLK(Benzoyl(4-B(OH)2))Y-OH), the MIC against Staphylococcus aureus was found to be 62.5 µg/mL (≈ 35.4 µM); against Escherichia coli, 16 µg/mL (≈ 9.07 µM); in experiment [1] it was 62.5 µg/mL (≈ 35.4 µM); in the experiment with Candida albicans, 8 µg/mL (≈ 4.54 µM); in the experiment on Aspergillus niger it was 125 µg/mL (≈ 70.9 µM).
With `NCCCC[C@H](NC(=O)[C@H](CCCCNC(=O)c1ccccc1)NC(=O)[C@H](CCCCNC(=O)c1ccccc1)NC(=O)[C@H](CCCCN)NC(=O)[C@H](CCCCN)NC(=O)[C@H](CCCCN)NC(=O)[C@H](CCCCN)NC(=O)[C@H](CCCCN)NC(=O)[C@@H](N)CCCCN)C(=O)N[C@@H](Cc1ccc(O)cc1)C(=O)O` (H-KKKKKKK(Bz)K(Bz)KY-OH), the MIC is 62.5 µg/mL (≈ 40.5 µM) against Staphylococcus aureus; 16 µg/mL (≈ 10.4 µM) in the experiment with Escherichia coli; 32 µg/mL (≈ 20.7 µM) in experiment [1]; 1 µg/mL (≈ 0.648 µM) with Candida albicans; 250 µg/mL (≈ 162 µM) with Aspergillus niger.
The corresponding values for `CC(C)C[C@H](NC(=O)[C@H](CCCCN)NC(=O)[C@H](CCCCN)NC(=O)[C@H](CCCCN)NC(=O)[C@H](CCCCN)NC(=O)[C@H](CCCCN)NC(=O)[C@@H](N)CCCCN)C(=O)N[C@@H](CCCCNC(=O)c1ccc(B(O)O)cc1)C(=O)N[C@@H](CCCCNC(=O)c1ccc(B(O)O)cc1)C(=O)N[C@@H](Cc1ccc(O)cc1)C(=O)O` (H-KKKKKKLK(Benzoyl(4-B(OH)2))K(Benzoyl(4-B(OH)2))Y-OH) are 32 µg/mL (≈ 19.8 µM), 8 µg/mL (≈ 4.95 µM), 32 µg/mL (≈ 19.8 µM), 4 µg/mL (≈ 2.48 µM) and 62.5 µg/mL (≈ 38.7 µM).
As to `CC(C)C[C@H](NC(=O)[C@H](CCCCNC(=O)c1ccc(B(O)O)cc1)NC(=O)[C@H](CC(C)C)NC(=O)[C@H](CCCCN)NC(=O)[C@H](CCCCN)NC(=O)[C@H](CCCCN)NC(=O)[C@H](CCCCN)NC(=O)[C@H](CCCCN)NC(=O)[C@@H](N)CCCCN)C(=O)N[C@@H](Cc1ccc(O)cc1)C(=O)O` (H-KKKKKKLK(Benzoyl(4-B(OH)2))LY-OH), the MIC in the experiment with Staphylococcus aureus was found to be 32 µg/mL (≈ 22 µM); against Escherichia coli it was 16 µg/mL (≈ 11 µM); in experiment [1], 32 µg/mL (≈ 22 µM); in the experiment with Candida albicans, 4 µg/mL (≈ 2.75 µM); in the experiment on Aspergillus niger, 62.5 µg/mL (≈ 43 µM).
